Data: patent publication US9895362B2, “Pharmaceutical composition combining an anticonvulsant and a derivate of nicotinic acid” (Farmacéuticos Rayere, S.A., priority 2014, dated 2018)

Assays:
[1] = test system: mechanical allodynia (diabetic neuropathy induced with streptozotocin); assay: Model of pain due to diabetic neuropathy induced with streptozotocin; mechanical allodynia by Von Frey filaments assay; isobolographic analysis; format: in vivo, male BALB/c mice; settings: for DE30 (effective dose that provides an analgesic effect of 30%): drugs administered individually, antiallodynic effect from AUC at 4 hours post-treatment; for dose-antiallodynic effect curve: gabapentin 50, 100, 150 mg/kg, lysine clonixinate 75, 150, 300 mg/kg, individually
Protocol: In this example, a model of neuropathic pain induced by streptozotocin in male BALB/c mice 6-8 weeks of age is used. The procedure used was based on one described and widely validated (Ahlgren, S. C. and Levine, J. D., 1993), which consists in an intraperitoneal injection of streptozotocin (45 mg/kg) in 0.2 mL of saline solution. […] The blood glucose levels were evaluated in 4 groups of mice with the following characteristics: 1) without treatment (basal), 2) with treatment in fasting, 3) after 1 day of treatment and 4) after 4 days of treatment. As a diabetes parameter, a plasma glucose level≧200 mg/dL was taken.
Allodynia was determined by mechanical stimulation through progressively […] application of different forces with Von Frey filaments of different caliber. The mice were placed in plastic cylinders on a wire mesh table for 15 minutes, ensuring that they were calm, and subsequently the filaments were progressively applied to the side of the leg. The filament of 0.02 g of force was the first to be applied to the left leg, five times during a total period of 30 seconds (approximately 2 seconds per stimulus), the reaction of the mouse being determined after each application. The response observed is the withdrawal or licking of the leg. If three of the five stimuli are observed, the reaction is considered positive and the mechanical threshold of the response is established.
Different groups were used to characterize the dose-response curve of the analgesics, administering the drugs after inducing of diabetes. The doses for gabapentin were 50, 100 and 150 mg/kg, and for lysine clonixinate they were 75, 150 and 300 mg/kg. Groups of animals were used with n≧8. A 0.9% saline solution was administered by intraperitoneal route as a control of each experimental group.
For determination of antiallodynic efficacy, the mean threshold in each group was plotted as a function of time after the administration of the drugs individually or in combination, and the area below the curve (ABC) was obtained using the trapezoid rule. The percentage increase of the threshold was calculated using the following equation: […]
To evaluate the net antiallodynic effect, the area under the curve of the time courses evaluated at 4 hours post-treatment was obtained.
To evaluate the effect of the CLG combination in relation to the effect of each drug individually, isobolographic analysis was used. […] From the respective DE30 of the individual drugs, combinations of gabapentin and CL in fixed proportions were made and evaluated.
Subsequently, a dose-response curve was plotted after coadministration of the two drugs. […] The data represent the mean and the standard error of 8 mice.
Once the DE30 values, both the theoretical and experimental, were obtained, a statistical comparison of the additive theoretical point and the experimental DE30 value was done using a Student's t-test. The type of interaction between the two drugs was established by constructing an isobologram as follows. For each of the individual agents, the dose that produces 30% of antiallodynic effect (DE30) was plotted in rectangular coordinates (x, y). The line that connects these two points is termed “isobolic” or the “additivity line,” and on this line are all the possible combinations of the two drugs that produce only an additivity or summation effect.
To describe the magnitude of the interaction, the interaction index value (γ), which is a quantitative measure of the interaction between two drugs, was calculated: […]

[2] = test system: mechanical allodynia (injury of the sciatic nerve); assay: Experimental model of neuropathic pain due to injury (ligation and cutting) of the sciatic nerve; mechanical allodynia by Von Frey filaments assay; isobolographic analysis; format: in vivo, mice; settings: for DE30: drugs administered individually, intraperitoneal, linear regression, AUC at 4 hours; for dose dependence of antiallodynic effect: intraperitoneal administration
Excerpt: To evaluate the analgesic efficacy of the CLG combination in neuropathic pain due to injury to the nerve, an experimental model of neuropathic pain due to ligation and cutting of sciatic nerve in mice was used. The procedure used was based on that described by I. Decosterd and C. J. Woolf (2000), which consists of isolating, tying and injuring the sciatic nerve of the mouse, followed by evaluation of the mechanical allodynia resulting from damage to the nerve.
The surgery consisted of making an incision of approximately 1 cm in the direction proximal longitudinal to the knee and afterwards opening the skin by blunt dissection and separating the muscular layer by dissection lateral to the blood vessel near the femur. Then the right sciatic nerve was exposed under the muscles, separating them with care to display the sciatic nerve in the region where it branches from the sural nerve. Only the sciatic nerve was sutured with No. 6 thread, trying not to damage the sural nerve in any way. A tight surgical knot was made on the sciatic nerve by cutting below the suture with a pair of tweezers, then stitching the muscle layer and the skin by surgical knots. […] Consequently, the antiallodynic effect of the drugs is evaluated from the second or third day after the surgery. For validation of the model, as a surgery control group, a sham surgery was used, in which the sciatic nerve is only exposed surgically, without ligation or cutting, and then the muscle tissue and skin is stitched.
In all groups, the evaluation of mechanical allodynia with the application of Von Frey filaments was done in the same manner as described above for the model of pain due to diabetic neuropathy. The response thresholds in both legs, ipsilateral (right) and contralateral (left), were evaluated.
For systemic administration of the drugs individually and in combinations in the mechanical allodynia model, different groups were used to characterize the dose-response curve by administering the drugs on the third day after the surgery. The doses for gabapentin were 50, 100 and 150 mg/kg, and for lysine clonixinate they were 75, 150 and 300 mg/kg. Afterwards, as described below, other groups were administered different doses of the CLG combination. Both gabapentin and lysine clonixinate and their combinations were dissolved in a 0.9% saline solution. Groups of animals were used with an experimental n of 6 to 8. A 0.9% saline solution was administered by intraperitoneal route to an experimental control group.
To evaluate the net antiallodynic effect, the area under the curve of the time courses evaluated at 4 hours post treatment, both of the ipsilateral and the contralateral leg, was obtained using the trapezoid rule. […] FIG. 10 represents the dose-antiallodynic effect curves, corresponding to gabapentin and lysine clonixinate administered individually. By means of linear regression, the DE30 values of the drugs administered individually were obtained.
In the same way as was done in the previous model, isobolographic analysis was used to evaluate the effect of the CLG combination in relation to the effect of each drug individually. From the respective DE30 of the individual drugs, combinations of gabapentin and CL in fixed proportions were evaluated.

[3] = test system: neurological profile (behavior, reflexes, convulsions, motor coordination); assay: Neurological profile after subchronic administration (14 days); format: in vivo, mice; settings: for value of all the parameters of the neurological profile: 14 days of treatment, at these doses; for Behavior: Exploratory Activity / Behavior: Flabbiness / Behavior: Irritability / Behavior: State of Alert / Behavior: Straightening of Tail / Behavior: Vocalization / Convulsions: Clonic / Convulsions: Gait Movements / Convulsions: Jumping Movement / Convulsions: Tonic / Motor Coordination: Abnormal Gait / Motor Coordination: Paralysis / Motor Coordination: Running in Circles / Motor Coordination: Staggering Gait / Reflexes: Corneal: i.p. daily 14 days, gabapentin 31 mg/kg, lysine clonixinate 150 mg/kg, or both
Protocol: The motor activity and biochemical profile evaluation data were evaluated by an analysis of variance (ANOVA), followed by a Dunnett test. The neurological profile data were evaluated by grading, with 0=null, […] and 3=significant. […] This administration was done consecutively every 24 hours. After 14 days of exposure, toxicological tests were done. A daily evaluation was simultaneously done of the neurological profile, since one critical aspect in all experimental models of nervous system pathologies is evaluation of the final neurological prognosis. In the case of subchronic administration of medication, evaluation of the final functional deficit is a valuable tool. Therefore, after receiving a daily dose for 14 days, the mice underwent an evaluation of the neurological profile of the experimental animals. This evaluation included parameters such as behavior, reflexes, convulsions and motor coordination. Each parameter was graded on a scale of 0=null, 1=slight, 2=moderate and 3=considerable.

neuropathic pain = assay: Overall conclusions from both mouse models of neuropathic pain; format: in vivo, mice; settings: lysine clonixinate alone, in the studies performed
Excerpt: In the present study, we used two mouse models to study neuropathic pain: the model of diabetic neuropathy induced by streptozotocin and the model of neuropathic pain induced by a physical injury to the sciatic nerve.

[4] = patients treated with gabapentin; cited from earlier work

SMILES	DE30 (effective dose that provides an analgesic effect of 30%) ([1]; diabetic neuropathy model)	dose-antiallodynic effect curve [1]	DE30 [2]	dose dependence of antiallodynic effect [2]	value of all the parameters of the neurological profile [3]	Behavior: Exploratory Activity [3]	Behavior: Flabbiness [3]	Behavior: Irritability [3]	Behavior: State of Alert [3]	Behavior: Straightening of Tail [3]	Behavior: Vocalization [3]	Convulsions: Clonic [3]	Convulsions: Gait Movements [3]	Convulsions: Jumping Movement [3]	Convulsions: Tonic [3]	Motor Coordination: Abnormal Gait [3]	Motor Coordination: Paralysis [3]	Motor Coordination: Running in Circles [3]	Motor Coordination: Staggering Gait [3]	Reflexes: Corneal [3]	also measured
Cc1c(Cl)cccc1Nc1ncccc1C(=O)O.NCCCC[C@H](N)C(=O)O [lysine clonixinate, lysine salt of 2-[(3-chloro-2-methylphenyl)amino]-3-pryridinecarboxylic acid]	150.41 ± 25.49 mg/kg	dose-dependent increase	579.67 mg/kg	dose dependent increase	0	0	0	0	0	0	0	0	0	0	0	0	0	0	0	0	antiallodynic effect (in words) ([1]; administered individually, diabetic neuropathy model): moderate antiallodynic effect; DE30 (effective dose that provides an analgesic effect of 30%) ([1]; diabetic neuropathy model, listed as Lysine Clonixinate): 150.41 mg/kg; antiallodynic effect (in words) ([2]; administered individually): moderate antiallodynic effect; effect on neuropathic pain (maximum found) (neuropathic pain): up to 30%
NCC1(CC(=O)O)CCCCC1 [gabapentin, 2-[1-(aminomethyl)cyclohexyl] acetic acid]	39.62 ± 1.35 mg/kg	dose-dependent increase	83.82 mg/kg	dose dependent increase	0	0	0	0	0	0	0	0	0	0	0	0	0	0	0	0	DE30 (effective dose that provides an analgesic effect of 30%) ([1]; diabetic neuropathy model, listed as Gabapentin): 39.62 mg/kg; patients showing drowsiness, dizziness, ataxia, headache and fatigue [4]: more than 10%
